# Reference: patent US20240226107A1, “UBIQUITIN-SPECIFIC PROTEASE 1 (USP1) INHIBITOR” (SIMCERE ZAIMING PHARMACEUTICAL CO., LTD., priority 2021, published 2024)
# Biological target: USP1 (Recombinant Human His6-USP1/His6-UAF1 Complex Protein) (Homo sapiens (Human), UniProt O94782)
# Assay: In vitro activity assay for USP1 (Ub-CHOP2-Reporter deubiquitination assay)
# Type: biochemical
# Settings: 0.5 h incubation at room temperature, read-out: In vitro inhibitory activity of USP1 IC50
# Experimental: The assay kit (Ub-CHOP2-Reporter Deubiquitination Assay Kit) was purchased from Lifesensors, with Cat. No. of PR1101. The assay kit was subpackaged and stored at −80° C.
# Each compound to be tested was dissolved with DMSO to 10 mM. The compound and pure DMSO (with a total volume of 50 nL) were loaded to each well of the 384-well plate by using an ECHO instrument to obtain gradient-diluted sample concentrations at different ratios. The enzyme was diluted with a freshly prepared reaction solution (20 mM Tris-HCl (pH 8.0), 2 mM CaCl2, 2 mM β-mercaptoethanol, 0.05% CHAPS, and ddH2O). To each well, 5 μL of diluted enzyme reaction solution was added, then the plate was centrifuged and oscillated to mix the enzyme and the compound, and the mixture was centrifuged again and placed on ice. The kit reporter system and the substrate were diluted with the reaction solution, then 5 μL of diluted liquid was added to each well, and mixed by centrifugation. The mixture was incubated at room temperature for 0.5 h. […] The inhibitory activity (IC50 values) of the compound on enzyme activity was calculated by using a four-parameter Logistic Model. […] A, B, C, and D are four parameters.
# USP1 (Recombinant Human His6-USP1/His6-UAF1 Complex Protein), sequence (O94782 whole entry): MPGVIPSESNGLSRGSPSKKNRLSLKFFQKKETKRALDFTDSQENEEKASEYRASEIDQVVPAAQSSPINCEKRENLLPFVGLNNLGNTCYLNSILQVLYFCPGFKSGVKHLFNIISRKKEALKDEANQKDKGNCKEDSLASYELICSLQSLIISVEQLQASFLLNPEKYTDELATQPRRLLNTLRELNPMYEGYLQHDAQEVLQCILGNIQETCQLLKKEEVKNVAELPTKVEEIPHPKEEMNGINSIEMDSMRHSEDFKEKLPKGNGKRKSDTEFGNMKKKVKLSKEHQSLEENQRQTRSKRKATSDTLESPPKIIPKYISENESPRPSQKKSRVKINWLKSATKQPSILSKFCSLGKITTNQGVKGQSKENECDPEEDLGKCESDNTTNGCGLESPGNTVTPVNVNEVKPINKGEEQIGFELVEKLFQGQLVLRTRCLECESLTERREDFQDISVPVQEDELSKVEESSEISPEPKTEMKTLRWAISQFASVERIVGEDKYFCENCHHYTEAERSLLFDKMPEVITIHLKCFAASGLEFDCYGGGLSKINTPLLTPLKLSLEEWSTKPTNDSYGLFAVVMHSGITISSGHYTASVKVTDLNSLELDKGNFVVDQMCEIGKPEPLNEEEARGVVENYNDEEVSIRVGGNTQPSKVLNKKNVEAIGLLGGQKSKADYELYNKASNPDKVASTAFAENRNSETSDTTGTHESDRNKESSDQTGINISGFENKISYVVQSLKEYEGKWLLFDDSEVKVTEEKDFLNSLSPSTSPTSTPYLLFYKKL
# USP1 (Recombinant Human His6-USP1/His6-UAF1 Complex Protein), sequence (Q8TAF3 whole entry partner): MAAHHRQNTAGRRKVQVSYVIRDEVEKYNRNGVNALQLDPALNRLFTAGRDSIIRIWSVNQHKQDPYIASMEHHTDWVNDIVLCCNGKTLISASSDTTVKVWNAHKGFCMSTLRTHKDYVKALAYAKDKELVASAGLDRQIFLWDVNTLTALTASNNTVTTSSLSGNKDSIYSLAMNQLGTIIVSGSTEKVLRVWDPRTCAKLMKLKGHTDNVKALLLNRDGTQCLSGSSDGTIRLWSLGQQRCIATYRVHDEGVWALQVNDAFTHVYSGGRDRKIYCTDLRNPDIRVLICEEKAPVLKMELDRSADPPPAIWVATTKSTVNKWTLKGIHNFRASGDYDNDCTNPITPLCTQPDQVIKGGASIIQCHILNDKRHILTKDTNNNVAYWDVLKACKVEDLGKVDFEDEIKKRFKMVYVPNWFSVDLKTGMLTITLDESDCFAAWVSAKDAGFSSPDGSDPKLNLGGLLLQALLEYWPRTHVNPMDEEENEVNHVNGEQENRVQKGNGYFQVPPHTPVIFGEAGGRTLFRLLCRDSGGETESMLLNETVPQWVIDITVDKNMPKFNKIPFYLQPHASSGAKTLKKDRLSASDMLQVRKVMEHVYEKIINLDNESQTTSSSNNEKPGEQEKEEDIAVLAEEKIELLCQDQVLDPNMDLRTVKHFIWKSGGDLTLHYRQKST
row,Compound,IC50
1,"COc1ncnc(C2CC2)c1-c1ncc2c(n1)N(Cc1c(F)cc(-c3nc(C(F)(F)F)cn3C)cc1F)CCO2 [Compound 10, 2-(4-cyclopropyl-6-methoxypyrimidin-5-yl)-8-(2,6-difluoro-4-(1-methyl-4-(trifluoromethyl)-1H-imidazol-2-yl)benzyl)-7,8-dihydro-6H-pyrimido[5,4-b][1,4]oxazine]",106 nM
2,"COc1ncnc(C2CC2)c1-c1ncc2c(n1)N(Cc1ccc3c(c1)CCCn1cc(C(F)(F)F)nc1-3)CC(=O)N2C(C)C [Compound 47, 2-(4-cyclopropyl-6-methoxypyrimidin-5-yl)-5-isopropyl-8-((2-(trifluoromethyl)-6,7-dihydro-5H-benzo[c]imidazo[1,2-a]azepin-9-yl)methyl)-7,8-dihydropteridin-6(5H)-one]",45.9 nM
3,"COc1ncnc(C2CC2)c1-c1ncc2c(n1)N(Cc1ccc3c(c1)CCCn1cc(C(F)(F)F)nc1-3)CC(=O)N2C1CC1 [Compound 48, 5-cyclopropyl-2-(4-cyclopropyl-6-methoxypyrimidin-5-yl)-8-((2-(trifluoromethyl)-6,7-dihydro-5H-benzo[c]imidazo[1,2-a]azepin-9-yl)methyl)-7,8-dihydropteridin-6-(5H)-one]",26.1 nM
4,"COc1ncnc(C2CC2)c1-c1ncc2c(n1)N(Cc1ccc(-n3nc(C(F)(F)F)cc3C)cc1)C(=O)OC21COC1 [Compound 54, 7′-(4-cyclopropyl-6-methoxypyrimidin-5-yl)-1′-(4-(5-methyl-3-(trifluoromethyl)-1H-pyrazol-1-yl)benzyl)spiro[oxetane-3,4′-pyrimido[4,5-d][1,3]oxazine]-2′(1′H)-one]",23.2 nM
5,"COc1ncnc(C2CC2)c1-c1ncc2c(n1)N(Cc1ccc(-c3nc(C(F)(F)F)cn3C)c(F)c1)C(=O)OC2(C)C [Compound 49, 7-(4-cyclopropyl-6-methoxypyrimidin-5-yl)-4,4-dimethyl-1-(3-fluoro-4-(1-methyl-4-(trifluoromethyl)-1H-imidazol-2-yl)benzyl)-1,4-dihydro-2H-pyrimido[4,5-d][1,3]oxazin-2-one]",33.2 nM
6,"CC(C)c1ncccc1-c1ncc2c(n1)N(Cc1ccc(-c3nc(C(F)(F)F)cn3C)cc1)CC(=O)N2 [Compound 4, 2-(2-isopropylpyridin-3-yl)-8-(4-(1-methyl-4-(trifluoromethyl)-1H-imidazol-2-yl)benzyl)-7,8-dihydropteridin-6(5H)-one]",43.3 nM
7,"COc1ncnc(C2CC2)c1-c1ncc2c(n1)N(Cc1ccc(-n3nc(C(F)(F)F)cc3C)cc1)C(=O)OC21CC1 [Compound 53, 7′-(4-cyclopropyl-6-methoxypyrimidin-5-yl)-1′-(4-(5-methyl-3-(trifluoromethyl)-1H-pyrazol-1-yl)benzyl)spiro[cyclopropane-1,4′-pyrimido[4,5-d][1,3]oxazine]-2′(1′H)-one]",8.9 nM
8,"COc1ncnc(C2CC2)c1-c1ncc2c(n1)N(Cc1ccc(-c3nc(C(F)(F)F)cn3C)c(F)c1)C(=O)OC21CC1 [Compound 51, 7′-(4-cyclopropyl-6-methoxypyrimidin-5-yl)-1′-(3-fluoro-4-(1-methyl-4-(trifluoromethyl)-1H-imidazol-2-yl)benzyl)spiro[cyclopropane-1,4′-pyrimido[4,5-d][1,3]oxazine]-2′(1′H)-one]",13.8 nM

# Results, then the compound that gave them:
row,IC50,Compound
1,13.5 nM,"C#CC1(C)OC(=O)N(Cc2ccc(-c3nc(C(F)(F)F)cn3C)c(F)c2)c2nc(-c3c(OC)ncnc3C3CC3)ncc21 (centres unmarked) [Compound 59, 7-(4-cyclopropyl-6-methoxypyrimidin-5-yl)-4-ethynyl-1-(3-fluoro-4-(1-methyl-4-(trifluoromethyl)-1H-imidazol-2-yl)benzyl)-4-methyl-1,4-dihydro-2H-pyrimido[4,5-d][1,3]oxazin-2-one]"
2,69.7 nM,"COc1ncnc(C2CC2)c1-c1ncc2c(n1)N(Cc1ccc(-c3nc(C(F)(F)F)cn3C)c(F)c1)N(C)C(=O)N2C [Compound 84, 7-(4-cyclopropyl-6-methoxypyrimidin-5-yl)-1-(3-fluoro-4-(1-methyl-4-(trifluoromethyl)-1H-imidazol-2-yl)benzyl)-2,4-dimethyl-1,4-dihydropyrimido[5,4-e][1,2,4]triazin-3(2H)-one]"
3,14.8 nM,"Cc1cc(C(F)(F)F)nn1-c1ccc(CN2C(=O)OC(C)(C)c3cnc(-c4c(OC(F)F)ncnc4C4CC4)nc32)cc1 [Compound 75, 7-(4-cyclopropyl-6-difluoromethoxypyrimidin-5-yl)-4,4-dimethyl-1-(4-(5-methyl-3-(trifluoromethyl)-1H-pyrazol-1-yl)benzyl)-1,4-dihydro-2H-pyrimido[4,5-d][1,3]oxazin-2-one]"
4,22.7 nM,COc1ncnc(C2CC2)c1-c1ncc2c(n1)N(Cc1ccc(-c3nc(C(F)(F)F)cn3C)c(C(F)(F)F)c1)CCO2 [Compound 64]
5,8.7 nM,"COc1ncnc(C2CC2)c1-c1ncc2c(n1)N(Cc1ccc(-n3nc(C(F)(F)F)cc3C)cc1)C(=O)OC21CCC1 [Compound 55, 7′-(4-cyclopropyl-6-methoxypyrimidin-5-yl)-1′-(4-(5-methyl-3-(trifluoromethyl)-1H-pyrazol-1-yl)benzyl)spiro[cyclobutane-1,4′-pyrimido[4,5-d][1,3]oxazin]-2′(1′H)-one]"
6,38 nM,"COc1ncnc(C2CC2)c1-c1ncc2c(n1)N(Cc1ccc(-n3nc(C(F)(F)F)cc3C)cc1)CC(=O)N2C1CC1 [Compound 72, 2-(4-cyclopropyl-6-methoxypyrimidin-5-yl)-8-(4-(5-methyl-3-(trifluoromethyl)-1H-pyrazol-1-yl)benzyl)-5-cyclopropyl-7,8-dihydropteridin-6(5H)-one]"

# System: MDA-MB-436 cells;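 note: MDA-MB-436 proliferation over 7 days with compound, viability read as ATP luminescence (CellTiter-Glo), inhibition relative to DMSO-only wells, day 0 signal as background, GI50 from four-parameter fit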
# Assay: not given
# Settings: not given
row,GI50,Compound
1,507 nM,"COc1ncnc(C2CC2)c1-c1ncc2c(n1)N(Cc1c(F)cc(-c3nc(C(F)(F)F)cn3C)cc1F)CCO2 [Compound 10, 2-(4-cyclopropyl-6-methoxypyrimidin-5-yl)-8-(2,6-difluoro-4-(1-methyl-4-(trifluoromethyl)-1H-imidazol-2-yl)benzyl)-7,8-dihydro-6H-pyrimido[5,4-b][1,4]oxazine]"
2,11.4 nM,"COc1ncnc(C2CC2)c1-c1ncc2c(n1)N(Cc1ccc(-c3nc(C(F)(F)F)cn3C)c(F)c1)CCO2 [Compound 32, 2-(4-cyclopropyl-6-methoxypyrimidin-5-yl)-8-(3-fluoro-4-(1-methyl-4-(trifluoromethyl)-1H-imidazol-2-yl)benzyl)-7,8-dihydro-6H-pyrimido[5,4-b][1,4]oxazine]"
3,1820 nM,"Cc1cnc(-c2ccccc2C(C)C)nc1NCc1ccc(-n2ccnn2)cc1 [ML323, reference compound]"
4,50.4 nM,"COc1ncnc(C2CC2)c1-c1ncc2c(n1)N(Cc1ccc(-c3nc(C(F)(F)F)cn3C)cc1F)CCO2 [Compound 9, 2-(4-cyclopropyl-6-methoxypyrimidin-5-yl)-8-(2-fluoro-4-(1-methyl-4-(trifluoromethyl)-1H-imidazol-2-yl)benzyl)-7,8-dihydro-6H-pyrimido[5,4-b][1,4]oxazine]"
5,20.9 nM,"COc1ncnc(C2CC2)c1-c1ncc2c(n1)N(Cc1ccc(-c3nc(C(F)(F)F)cn3C)cc1)CCO2 [Compound 2, 2-(4-cyclopropyl-6-methoxypyrimidin-5-yl)-8-(4-(1-methyl-4-(trifluoromethyl)-1H-imidazol-2-yl)benzyl)-7,8-dihydro-6H-pyrimido[5,4-b][1,4]oxazine]"
6,420 nM,"COc1ncnc(C2CC2)c1-c1ncc2c(n1)N(Cc1ccc(-c3nc(C(F)(F)F)cn3C)cc1)C(=O)CO2 [Compound 6, 2-(4-cyclopropyl-6-methoxypyrimidin-5-yl)-8-(4-(1-methyl-4-(trifluoromethyl)-1H-imidazol-2-yl)benzyl)-6H-pyrimido [5,4-b][1,4]oxazin-7(8H)-one]"
